According to EP0103895A2, “Novel hydroxylamine derivatives, production and use thereof” (MEIJI SEIKA KABUSHIKI KAISHA, priority 1982, dated 1984):
Values joined by “and” are separate entries in the source; they are usually repeats but may differ in a detail not shown here. Identical values can stand only once.

Columns and labels:
[1] = system: stomach worm (Haemonchus controtus); assay: Anthelmintic test against cow stomach worm in naturally infected cows, E.P.G. on 7th day (Test Examples A6, B6, C6, D6); format: in vivo; details: cows
Protocol: Three cows infected with stomach worm (naturally infected cows) were employed by grouping them into a group of two and a group of one.
(§1) As control, only gelatin capsules were administered orally to the one cow.
(§2) Before administration and on the 7th day after administration, fecal matter testing was conducted to calculate the E.P.G., and the anthelmintic effect was judged by the changing of the E.P.G. to negative.
as §1, §1

[2] = system: Liver fluke; Fasciola hepatica (F. hepatica); assay: Test of anthelmintic effect against rat infected experimentally with liver fluke (Test Examples A11, B11, C11, D11); format: in vivo; set-up: key to Presence or absence of fluke egg in fecal matter On 21st day after the last administration: +: indicates detection of fluke egg; -: indicates no detection; details: rats, 50 mg/Kg x 5 orally, one value per rat; for Condition of fluke body: autopsy, liver, "Denatured" = fluke body is alive but a part of fluke body has changed
Excerpt: Twenty-eight (28) rats were employed in fourteen groups each of two rats, each rat being infected with 5 metacercariae of Liver fluke; Fasciola he^patica (F.. hepatica) and confirmed to have worm eggs on the 75th day after infection according to fecal matter testing.
Judgement of the effect was made by the presence or absence of the worm gees in the fecal matter on the 21st day after the last administration and by examination according to autopsis as to whether the worm bodies were dead or alive in the liver.
The same as that in Test Example All, but eight (8) rats were employed by grouping them into groups each of two rats, each rat being infected with 5 metacercariae of liver fluke and confirmed to have fluke eggs on the 75th day after infection according to fecal matter testing.
The compounds provided for the tests were Compound Nos. Bl, B8 and B19.
The same as that in Test Example All, but six (6) rats were employed by grouping them into groups each of two rats, each rat being infected with 5 metacercariae of Fasciola hepatica and confirmed to have worm eggs on the 75th day after infection according to fecal matter testing.
The compounds provided for the tests were Compound Nos. C2 and C6.
The same as that in Test Example All, but the compounds provided for tests were Compound Nos. D14, D15 and D16.

[3] = system: Diphyllobothrium erinacei; assay: Test of anthelmintic effect against Diphyllobothrium erinacei (tapeworm) in experimentally infected cats (Test Examples A5, B5, C5, D5)
[4] = system: canine filaria; Dirofilaria immitis; assay: Test of anthelmintic effect against canine filaria in naturally infected dogs, subcutaneous injection, microfilaria in blood and adult filaria at autopsy (Test Examples A10, B10, C10, D10); format: in vivo; details: dogs
[5] = system: fowl roundworm (As. galli); assay: Anthelmintic test in chickens artificially infected with fowl roundworm, compound added to feed, E.P.G. and worm count up to 21st day (Test Examples A2, B2, C2, D2); format: in vivo, Ascaridia galli; details: Ascaridia galli, po, 504 h, chickens, worm count on 21st day, one value per chicken, read-out: Anthelmintic effect; for inhibition in vivo at 10 ppm: 10 ppm added to feed; for inhibition in vivo at 50 ppm: 50 ppm added to feed
[6] = system: canine strongyloides (Strongyloides stercoralis); assay: Anthelmintic test against canine strongyloides in naturally infected dogs, E.P.G. on 7th day (Test Examples A4, B4, C4, D4); format: in vivo; details: dogs, 10 mg/Kg orally once, one value per dog
Protocol: Three dogs infected with canine strongyloides (naturally infected dogs) were employed by grouping them into a group of two and a group of one.
As control, only a gelatin capsule was administered orally to the one dog.
as §2
(§3) As control, only gelatin capsules were administered orally to the one dog.
as §3

[7] = system: swine Oesophagostomum (Oesophagostomum dentatum); assay: Test of anthelmintic effect against swine Oesophagostomum in naturally infected pigs, E.P.G. on 7th day (Test Examples A8, B8, C8, D8); format: in vivo; details: pigs
Protocol: Six pigs infected with swine Oesophagostomum (naturally infected pigs) were employed by grouping them into groups each of two pigs.
(§4) As a control, only gelatin capsules were administered orally to the two pigs.
as §2

[8] = system: swine roundworm (Ascaris suum); assay: Test of anthelmintic effect in naturally infected pigs, E.P.G. on 7th day: swine roundworm (Test Examples A9, B9, C9, D9); format: in vivo; details: for anthelmintic effect: pigs infected with swine roundworm and swine whipworm (statement covers both); for Change of E.P.G. 7th day: pigs, Ascaris suum, one value per pig
Protocol: (§5) Six pigs infected with swine roundworm and swine whipworm (naturally infected pigs) were employed in groups each of two pigs.
as §4
(§6) Before administration and on the 7th day after. administration, fecal matter testing was conducted to calculate the E.P.G., and the anthelmintic effect was judged by the changing of the E.P.G. to negative'.
(§7) 50 mg of each compound was placed in a gelatin capsule per 1 Kg of body weight and administered orally to each of the two pigs. As control, only gelatin capsules were administered orally to two pigs.
(§8) 30 mg of each compound was placed in a gelatin capsule per 1 Kg of body weight and administered orally to each of the two pigs. As control, only gelatin capsules were administered orally to two pigs.

[9] = system: swine whipworm (Trichuris suis); assay: Test of anthelmintic effect in naturally infected pigs, E.P.G. on 7th day: swine whipworm (Test Examples A9, B9, C9, D9); format: in vivo; details: pigs, one value per pig
Protocol: as §5, §4, §6, §7, §8

[10] = system: fowl roundworm (Ascaridia galli); assay: Anthelmintic test in chickens artificially infected with fowl roundworm, single oral dose in gelatin capsule, worm bodies counted within 48 hours (Test Examples A1, B1, C1, D1); format: in vivo; details: Ascaridia galli, po, 48 h, chickens, one value per chicken (No.1-3), read-out: Anthelmintic effect after 48 hours
Method in brief: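 Anthelmintic percentage derived from counts of worms passed within 48 h plus worms left in the intestine after killing at 48 h. Infection confirmed by fecal examination in three-bird groups; compound given orally once in gelatin capsules at 10/20 (A1, B1), 30/50 (C1) or 15/30 (D1) mg/kg.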

[11] = 20 mg/Kg x 3 subcutaneously, autopsy on 10th day after the last administration, one value per dog, 20 mg/kg

## C#CCN(OCC=C)C(C)=O [Compound A3, N-propargyl-N-acetyl-O-allylhydroxylamine]
[1]; 15 mg/Kg orally once, baseline, one value per cow, 15 mg/kg
  Change of E.P.G. Before administration: 1,700 E.P.G. and 1,500 E.P.G.
[1]; 15 mg/Kg orally once, one value per cow
  Change of E.P.G. 7th day: 0 E.P.G.
[1]; one administration of 15 mg/Kg
  anthelmintic effect: marked anthelmintic effect
[2]
  Condition of fluke body: dead
  Presence or absence of fluke egg in fecal matter On 21st day after the last administration: -
[3]; cats infected with 5 plerocercoids, 50 mg/Kg x 5 times orally, autopsy ten days after administration, one value per cat
  Number of worm bodies remaining in enteron: 0
[3]; cats, 50 mg/Kg x 5 times orally, one value per cat (Table A7)
  Worm egg detection on 10th day after administration: -
[3]; cats, 5 continuous administrations of 50 mg/Kg
  anthelmintic effect: marked anthelmintic effects
[4]; Dirofilaria immitis, sc, 240 h, administration of 20 mg/Kg repeated three times, given as about 50% or more, read-out: anthelmintic effect against adult filaria
  inhibition in vivo at 20 mg/kg: ≥ 50%
[4]; [11]
  Effect on adult filaria: Number of worms killed/Total parasites: 13/18 and 4/ 8
  Effect on adult filaria: Percent of worms killed: 72% and 50%
[4]; 20 mg/Kg x 3 subcutaneously, earlobe blood, one value per dog
  Number of microfilaria/20 µl On 10th day after the last administration: 0 /20 µl
[4]; administration of 20 mg/Kg repeated three times
  anthelmintic effect against microfilaria (mf): marked anthelmintic effect
[5]
  inhibition in vivo at 10 ppm: 100%
  inhibition in vivo at 50 ppm: 100%
[6]; baseline, 10 mg/kg
  Change of E.P.G. Before administration: 1,900 E.P.G. and 2,700 E.P.G.
[6]
  Change of E.P.G. 7th day: 0 E.P.G.
[7]; 20 mg/Kg orally once, baseline, one value per pig, 20 mg/kg
  Change of E.P.G. Before administration: 1,600 E.P.G. and 1,000 E.P.G.
[7]; 20 mg/Kg orally once, one value per pig
  Change of E.P.G. 7th day: 0 E.P.G.
[7]; one administration of 20 mg/Kg
  anthelmintic effect: marked anthelmintic effect

## C#CCN(OCCCC)C(=O)c1ccccc1 [Compound A10, N-propargyl-N-benzoyl-O-butylhydroxylamine]
[2]
  Condition of fluke body: dead
  Presence or absence of fluke egg in fecal matter On 21st day after the last administration: -
[5]
  inhibition in vivo at 10 ppm: 80 to 90%
  inhibition in vivo at 50 ppm: 100%
[8]; one administration of 20 mg/Kg
  anthelmintic effect: marked anthelmintic effect
[8]; 20 mg/Kg orally once
  Change of E.P.G. 7th day: 0 E.P.G.
[9]; 20 mg/Kg orally once
  Change of E.P.G. 7th day: 0 E.P.G.

## C=CCN(OC)C(=O)c1ccccc1 [Compound B5, N-allyl-N-benzoyl-O-methylhydroxylamine]
[10]; 30 mg/Kg orally in gelatin capsule
  inhibition in vivo at 30 mg/kg: 100%
[10]; 50 mg/Kg orally in gelatin capsule
  inhibition in vivo at 50 mg/kg: 100%
[5]; 20 ppm added to feed
  inhibition in vivo at 20 ppm: 80 to 90%
[5]
  inhibition in vivo at 50 ppm: 100%
[8]; one administration of 50 mg/Kg
  anthelmintic effect: marked anthelmintic effect
[8]; 50 mg/Kg orally once
  Change of E.P.G. 7th day: 0 E.P.G.
[9]; 50 mg/Kg orally once, baseline, 50 mg/kg
  Change of E.P.G. Before administration: 2,100 E.P.G. and 1,300 E.P.G.
[9]; 50 mg/Kg orally once
  Change of E.P.G. 7th day: 0 E.P.G.
